According to patent publication US11324832B2, “Tripartite modulators of endosomal G protein-coupled receptors” (Endosome Therapeutics, Inc., priority 2015, dated 2022):
Where a SMILES comes first, the peptide text is derived from it. [ ]: non-standard residue; d: D form. The star is where a group is joined. X1 = CC(C)CCC[C@@H](C)[C@H]1CC[C@H]2[C@@H]3CC[C@H]4C[C@@H](O*)CC[C@]4(C)[C@H]3CC[C@]12C; NMeL = CN[C@@H](CC(C)C)C(=O)O; PEG4 = NCCOCCOCCOCCOCCC(=O)O; PEG3 = NCCOCCOCCOCCC(=O)O; Ava = NCCCCC(=O)O

What was measured:
NK1R [1] = target: T1, NK1R (Rattus norvegicus, UniProt P14600); experiment: Calcium mobilization assay, agonist mode, HEK293 cells expressing NK1R; assay type: cell-based; design: Full length and truncated 6312 rat HA-NK1R have been described; expressed in transfected cells; host or cells: HEK293
Source text: GR73632 was conjugated to cholestanol (Compound 3) or ethyl ester (GR73632-ethyl ester) via a flexible PEG linker. The effect of these compounds in HEK293 cells expressing NK1R was then studied.

NK1R [2] = target: T1, NK1R; experiment: BRET between NK1R-RLuc8 and βarr1/2-YFP in HEK293 cells; assay type: cell-based; design: Full length and truncated 6312 rat HA-NK1R have been described; expressed in transfected cells; host or cells: HEK293 (transient); details: agonist alone
Description: Bioluminescence Resonance Energy Transfer (BRET) was employed to quantitatively assess the proximity of the NK1R to key regulators of GPCR trafficking (βarrs), and resident proteins of plasma (KRas) and early endosomal (Rab5a) membranes in HEK293 cells (FIG. 1A).
HEK293 cells were transfected with the following cDNAs: 1 μg NK1R-RLuc8 or 1 μg CLR-RLuc8+1 μg Myc-RAMP1+4 μg KRas-Venus, 4 μg Rab5a-Venus, 4 μg βarr1-YFP, or 4 μg βarr2-YFP; or 1 μg NK1R+0.5 μg Gαq-RLuc8+1 μg Gβ1+4 μg Gγ2-Venus; or 1 μg NK1R+0.5 μg Gαq-RLuc8+1 μg Gβ1+1 μg Gγ2+4 μg Rab5a-Venus. After 48 h, cells were equilibrated in Hank's balanced salt solution (HBSS) at 37° C., and incubated with the RLuc substrate coelenterazine h (5 μM, 15 min).

NK1R [3] = target: T1, NK1R; experiment: FRET biosensors of compartmentalized signaling (ERK, PKC, cAMP) in NK1R-expressing HEK293 cells; assay type: cell-based; design: Full length and truncated 6312 rat HA-NK1R have been described; expressed in transfected cells; host or cells: HEK293 (transient); details: agonist alone, imaged over 20 min
Description: To study the link between NK1R trafficking and signaling, the NK1R and Förster Resonance Energy Transfer (FRET) biosensors targeted to detect activated ERK in the cytosol (CytoEKAR) or nucleus (NucEKAR, FIG. 2A), activated PKC at the plasma membrane (pmCKAR) or in the cytosol (CytoCKAR, FIG. 2C), and cAMP at the plasma membrane (pmEpac2) or in the cytosol (CytoEpac2, FIG. 2E) were expressed in HEK293 cells.
HEK293 cells were transfected with 55 ng/well rat NK1R with N-terminal HA. 11 epitope tag (HA-NK1R) or CLR plus RAMP1 and 40 ng/well FRET biosensors. FRET was assessed 48 h after transfection, following serum restriction (0.5% FBS overnight). For experiments using clathrin or dynamin siRNA, cells were transfected with 55 ng/well rat HA-NK1R, 40 ng/well FRET biosensor and 25 nM/well scrambled, clathrin or dynamin ON-TARGETplus SMARTpool siRNA (GE Dharmacon). FRET was assessed 72 h after transfection, following serum restriction (0.5% FBS overnight). Cells were equilibrated in HBSS at 37° C. and FRET was analyzed using a GE Healthcare INCell 2000 Analyzer. For GFP/RFP emission ratio analysis, cells were sequentially excited using a FITC filter (490/20) with emission measured using dsRed (605/52) and FITC (525/36) filters, and a polychroic optimized for the FITC/dsRed filter pair (Quad4). For CFP/YFP emission ratio analysis, cells were sequentially excited using a CFP filter (430/24) with emission measured using YFP (535/30) and CFP (470/24) filters, and a polychroic optimized for the CFP/YFP filter pair (Quad3). Cells were imaged every 1 min, allowing image capture of 14 wells per minute. Baseline emission ratio images were captured for 4 min. […] Cells were then stimulated with the positive control (200 nM phorbol 12,13-dibutyrate for ERK; 200 nM phorbol 12,13-dibutyrate with phosphatase inhibitor cocktail for PKC; 10 μM forskolin, 100 μM 3-isobutyl-1-methylxanthine, 100 nM PGE1 for cAMP) for 10 min to generate a maximal increase, and positive emission ratio images were captured for 4 min. Data were analyzed as described and expressed as emission ratios relative to baseline for each cell (F/F0). Cells with >10% change in F/F0 after stimulation with positive controls were selected for analysis.

[4] = target: T2, endothelin converting enzyme 1 (Homo sapiens, UniProt P42892); details: cited from earlier work
T2 sequence (P42892 1-770): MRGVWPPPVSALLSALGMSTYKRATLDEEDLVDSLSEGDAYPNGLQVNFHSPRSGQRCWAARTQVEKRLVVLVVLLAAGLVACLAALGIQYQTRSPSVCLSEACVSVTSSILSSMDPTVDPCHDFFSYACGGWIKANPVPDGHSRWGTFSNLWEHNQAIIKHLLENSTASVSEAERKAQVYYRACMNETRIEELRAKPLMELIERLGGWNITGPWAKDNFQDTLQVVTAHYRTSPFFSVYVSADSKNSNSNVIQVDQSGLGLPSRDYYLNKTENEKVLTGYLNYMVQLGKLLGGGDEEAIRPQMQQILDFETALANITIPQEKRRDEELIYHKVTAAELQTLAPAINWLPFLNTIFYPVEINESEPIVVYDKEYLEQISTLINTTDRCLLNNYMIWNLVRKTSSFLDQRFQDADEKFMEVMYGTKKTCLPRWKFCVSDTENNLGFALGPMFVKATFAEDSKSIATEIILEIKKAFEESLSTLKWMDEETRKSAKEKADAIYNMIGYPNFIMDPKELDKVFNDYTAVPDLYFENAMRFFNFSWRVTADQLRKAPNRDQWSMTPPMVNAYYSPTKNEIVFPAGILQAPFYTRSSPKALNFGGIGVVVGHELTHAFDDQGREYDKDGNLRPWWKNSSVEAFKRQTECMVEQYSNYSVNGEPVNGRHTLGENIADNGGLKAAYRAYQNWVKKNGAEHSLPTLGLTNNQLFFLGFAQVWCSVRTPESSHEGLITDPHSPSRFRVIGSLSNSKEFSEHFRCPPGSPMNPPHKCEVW

T1 sequence (P14600 whole entry, the tested form may be a part): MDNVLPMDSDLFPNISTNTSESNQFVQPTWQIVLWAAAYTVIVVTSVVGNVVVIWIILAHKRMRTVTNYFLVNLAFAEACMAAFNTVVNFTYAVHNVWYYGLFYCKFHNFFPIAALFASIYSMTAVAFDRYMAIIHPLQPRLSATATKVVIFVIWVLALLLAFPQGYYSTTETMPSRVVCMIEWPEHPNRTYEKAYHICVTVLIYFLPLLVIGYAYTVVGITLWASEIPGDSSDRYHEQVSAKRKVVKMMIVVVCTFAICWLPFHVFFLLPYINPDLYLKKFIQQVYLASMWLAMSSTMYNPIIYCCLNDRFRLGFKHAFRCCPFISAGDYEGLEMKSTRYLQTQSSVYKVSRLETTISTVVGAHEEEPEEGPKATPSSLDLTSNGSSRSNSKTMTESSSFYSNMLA

| Compound | decrease in potency compared to the free agonist (NK1R [1]; calcium mobilization) [fold] | recruitment of βarrs (BRET NK1R-RLuc8 / βarr1-YFP, βarr2-YFP) (NK1R [2]) | cytosolic ERK activation (FRET CytoEKAR) (NK1R [3]) | nuclear ERK activation (FRET NucEKAR) (NK1R [3]) | susceptibility to cleavage by endothelin converting enzyme 1 [4] | EC50 (NK1R [1]; HEK293 cells expressing NK1R, given as logEC50 (negative)) [pM] |
| --- | --- | --- | --- | --- | --- | --- |
| CSCC[C@H](NC(=O)[C@H](CC(C)C)N(C)C(=O)[C@@H]1CCCN1C(=O)[C@H](Cc1ccccc1)NC(=O)[C@H](Cc1ccccc1)NC(=O)CCCCNC(=O)CCOCCOCCOCCOCCNC(=O)CCOCCOCCOCCNC(=O)CCOCCOCCOCCOCCNC(=O)[C@H](CC(=O)O[C@H]1CC[C@@]2(C)[C@@H](CC[C@@H]3[C@@H]2CC[C@]2(C)[C@@H]([C@H](C)CCCC(C)C)CC[C@@H]32)C1)NC(C)=O)C(N)=O [Compound 3] (Ac-D(X1)[PEG4][PEG3][PEG4][Ava]FFP[NMeL]M-NH2) | ~100 | does not induce recruitment of βarrs | no cytosolic ERK | stimulates sustained nuclear ERK phosphorylation | – | – |
| CSCC[C@H](NC(=O)[C@H](CC(C)C)N(C)C(=O)[C@@H]1CCCN1C(=O)[C@H](Cc1ccccc1)NC(=O)[C@H](Cc1ccccc1)NC(=O)CCCCN)C(N)=O [GR73632, Ava-Phe-Phe-Pro-N-MeLeu-Met-NH2] (H-[Ava]FFP[NMeL]M-NH2) | – | – | stimulated sustained cytosolic and nuclear ERK phosphorylation | stimulated sustained cytosolic and nuclear ERK phosphorylation | not susceptible to cleavage | 933 |
